Source: paper PMC9513756, “Establishing a UHPLC-MS/MS method for evaluation of the influence of stir-frying on the pharmacokinetics of seven compounds in Arctii Fructus” (RSC Advances, 2022)
Where two headings read alike, the source gives them in different places.

Test: Pharmacokinetics of seven compounds in rat plasma after oral administration of RAF and SAF extracts (UHPLC-MS/MS)
Format: in vivo, male Sprague-Dawley rats
Conditions: for AUC(0-inf) / AUC(0-t) / Tmax / half-life / MRT inf: male, Sprague-Dawley, rat, plasma, po, 12 g/kg
[1] = oral RAF extract 12 g kg^−1, n = 6
[2] = oral RAF extract 12 g kg^−1, n = 6, read-out: Mean residence time (MRT(0–∞))
[3] = oral SAF extract 12 g kg^−1, n = 6
[4] = oral SAF extract 12 g kg^−1, n = 6, read-out: Mean residence time (MRT(0–∞))

Method: All the components were measured using a Shimadzu UHPLC system (Shimadzu, Japan), and a Triple Quadrupole 5500 LC-MS/MS system (AB Sciex, USA) in negative ion mode. […] The gradient program was: 5–28% B (0–3 min), 28% B (3–3.5 min), 28–38% B (3.5–4 min), 38% B (4–4.5 min), 38–100% B (4.5–6 min), 100–5% B (6–7 min). With a column temperature of 40 °C, the optimized key parameters including curtain gas, collision gas, ion spray voltage, and temperature were assigned values of 55 psi, 35 psi, 4500 V, and 550 °C, respectively.
The rat plasma sample (100 μL), IS (10 μL), and 2 M HCl (20 μL) were mixed and vortex mixed for 3 min. Subsequently, 1 mL of ethyl acetate–butyl alcohol (1 : 1) was spiked into the mixed solution, and then centrifuged for 5 min at 25 000 × g.[14] Next, the supernatant was transferred and evaporated with nitrogen gas. These residues were then re-dissolved in 100 μL of 60% methanol, with the final solutions being vortex mixed for 3 min, and then centrifuged for 10 min at 25 000 × g. Finally, the supernatant was injected into the UHPLC-MS/MS for extensive analysis.
Firstly, male Sprague-Dawley rats (200–220 g) in the animal laboratory at the Nanjing University of Chinese Medicine under the standard conditions (License number: SYXK(SU)-2007-0030) were fed. The rats were fed and provided with water for one week prior to the experimentation. Secondly, before the administration of the extracts, the rats were stopped from eating but were provided with water for 12 h prior to the test. […] Depending on the clinical dosage administered to the human body, the dosage of RAF and SAF comprised 12 g kg^−1 for oral administration. In addition, 500 μL blood samples (about 250 μL plasma) were collected in 1.5 mL heparinized polythene tubes at 0, 0.033, 0.083, 0.167, 0.33, 0.5, 0.75, 1, 2, 4, 6, 8, 12, 24, and 48 h via the postorbital venous plexus veins, after oral administration of the two extracts was observed. Finally, the collected plasma was centrifuged for 5 min at 25 000 × g and stored at −20 °C before the analysis. All the pharmacokinetic parameters were evaluated with the DAS 1.0 system (Medical College of Wannan, China). Furthermore, the maximum concentration of oral administration of AF (Cmax) and the time to reach Cmax (Tmax) were derived from the concentration–time profile. All the values were given as mean ± standard deviation.

Row | SMILES | AUC(0-inf) [1] | AUC(0-t) [1] | Tmax [1] | half-life [1] | MRT inf [2] | AUC(0-inf) [3] | AUC(0-t) [3] | Tmax [3] | half-life [3] | MRT inf [4] | C (max) [1] | C (max) [3] | shape of plasma concentration-time profile (oral RAF and SAF) | t 1/2 [1] | Mean residence time (MRT(0–∞)) [1] | Mean residence time (MRT(0–∞)) [3] | t 1/2 [3] | T max [1] | T max [3]
1 | COc1ccc(C[C@H]2COC(=O)[C@@H]2Cc2ccc(O[C@@H]3O[C@H](CO)[C@@H](O)[C@H](O)[C@H]3O)c(OC)c2)cc1OC [Arctiin, arctiin] | 1070 ± 417 ng·h/mL | 826 ± 216 ng·h/mL | 0.152 ± 0.09 h | 3 ± 1.42 h | 5.33 ± 2.99 h | 1970 ± 600 ng·h/mL | 943 ± 228 ng·h/mL | 0.072 ± 0.05 h | 3.83 ± 1.86 h | 8.98 ± 3.11 h | 1019.3 ± 605.9 ng/mL | 605.7 ± 389.5 ng/mL | – | – | – | – | – | – | –
2 | COc1cc(C[C@H]2C(=O)OC[C@@H]2Cc2ccc(OC)c(OC)c2)ccc1O [Arctigenin, arctigenin] | – | – | 9 ± 2.45 h | 8.25 ± 1.09 h | 14.9 ± 0.99 h | – | – | 8.67 ± 3.72 h | 9.95 ± 4.46 h | 17.8 ± 6.08 h | 706.9 ± 148.9 ng/mL | 600.8 ± 158.3 ng/mL | double-peak phenomenon | – | – | – | – | – | –
3 | O=C(/C=C/c1ccc(O)c(O)c1)O[C@@H]1C[C@](O)(C(=O)O)C[C@@H](O)[C@H]1O [Chlorogenic acid, chlorogenic acid] | 1090 ± 588 ng·h/mL | 1070 ± 594 ng·h/mL | 0.875 ± 0.41 h | – | 3.72 ± 0.6 h | 937 ± 660 ng·h/mL | 695 ± 307 ng·h/mL | 0.111 ± 0.43 h | 4.37 ± 0.32 h | 5.09 ± 1.82 h | 348.5 ± 161.3 ng/mL | 303.7 ± 105.7 ng/mL | – | 2.175 ± 0.28 h | – | – | – | – | –

The remaining lines, values ahead:

Row | AUC(0-inf) [1] | AUC(0-t) [1] | Tmax [1] | half-life [1] | MRT inf [2] | AUC(0-inf) [3] | AUC(0-t) [3] | Tmax [3] | half-life [3] | MRT inf [4] | C (max) [1] | C (max) [3] | shape of plasma concentration-time profile (oral RAF and SAF) | t 1/2 [1] | Mean residence time (MRT(0–∞)) [1] | Mean residence time (MRT(0–∞)) [3] | t 1/2 [3] | T max [1] | T max [3] | SMILES
4 | 272 ± 169 ng·h/mL | 219 ± 110 ng·h/mL | 0.792 ± 0.09 h | 6.7 ± 3.61 h | 8.35 ± 2.91 h | 180 ± 63.6 ng·h/mL | 101 ± 73.1 ng·h/mL | 0.1 ± 0.07 h | 3.27 ± 1.26 h | 7.97 ± 5.12 h | 99.05 ± 37.81 ng/mL | 135.71 ± 25.50 ng/mL | – | – | – | – | – | – | – | O=C(C=Cc1ccc(O)c(O)c1)OC1CC(O)(C(=O)O)CC(OC(=O)C=Cc2ccc(O)c(O)c2)C1O (stereo not shown) [Isochlorogenic acid A, isochlorogenic acid A]
5 | 84.1 ± 46.3 ng·h/mL | 71.5 ± 33.2 ng·h/mL | 0.125 ± 0.05 h | – | – | – | 79.5 ± 25.1 ng·h/mL | 0.078 ± 0.03 h | – | – | 39.89 ± 17.30 ng/mL | 103.84 ± 47.62 ng/mL | – | 9.002 ± 5.89 h | 15.89 ± 11.25 h | 8.736 ± 5.55 h | 6.770 ± 4.30 h | – | – | O=C(C=Cc1ccc(O)c(O)c1)OC1CC(O)(C(=O)O)CC(O)C1OC(=O)C=Cc1ccc(O)c(O)c1 (stereo not shown) [Isochlorogenic acid C, isochlorogenic acid C]
6 | – | – | – | – | – | – | – | – | 24.3 ± 11.5 h | – | 11.33 ± 8.68 ng/mL | 43.22 ± 26.80 ng/mL | – | 35.68 ± 18.24 h | 52.97 ± 27.74 h | 32.75 ± 15.17 h | – | 7.02 ± 4.2 min | 6.18 ± 3 min | O=C(C=Cc1ccc(O)c(O)c1)OC1CC(O)(C(=O)O)CC(O)C1OC(=O)C=Cc1ccc(O)c(O)c1 (stereo not shown) [Isochlorogenic acid B, isochlorogenic acid B]
7 | 196 ± 59.1 ng·h/mL | 152 ± 60.7 ng·h/mL | 0.431 ± 0.07 h | 12.6 ± 7.96 h | 19.9 ± 9.37 h | 280 ± 68 ng·h/mL | 218 ± 80.3 ng·h/mL | 0.103 ± 0.05 h | 13.5 ± 7.98 h | 16.9 ± 8.6 h | 34.80 ± 25.06 ng/mL | 116.16 ± 35.41 ng/mL | – | – | – | – | – | – | – | O=C(C=Cc1ccc(O)c(O)c1)OC1C(O)CC(O)(C(=O)O)CC1O (stereo not shown) [Cryptochlorogenic acid, cryptochlorogenic acid]
